From patent publication US10570179B2, “Substituted urea depsipeptide analogs as activators of the CLPP endopeptidase” (priority 2016, dated 2020)
Converted amounts (≈) assume the structure as drawn. Read-outs that look alike come from different tables or passages of the source. Numbered stars: 1 amine (or outer) side, 2 acyl side, 3 side chain; on linkers, the order of the positions; unused ones are H or OH. Bridge positions count the residues as written; N and C are the ends. Square brackets hold non-standard residues; d marks the D form. Peptide text beside a SMILES is read from it. * marks the point of attachment. ξ: configuration not given here. Piperazine(2S-CO,4-Me) = CN1CCN[C@H](C(=O)O)C1; Phe(3,5-F2) = N[C@@H](Cc1cc(F)cc(F)c1)C(=O)O; Phe(3-Me) = Cc1cccc(C[C@H](N)C(=O)O)c1; NH(4-Cl-2-F-phenyl) = Fc1cc(Cl)ccc1N*; Pro(4R-Me) = C[C@H]1CN[C@H](C(=O)O)C1; NH(4-Me-phenyl) = Cc1ccc(N*)cc1; ξNMeThr = CNC(C(=O)O)[C@@H](C)O; aThr = C[C@H](O)[C@H](N)C(=O)O; Pip = O=C(O)[C@@H]1CCCCN1; CO = O=C([*:1])[*:2]

What was measured:
[1] = Plasma protein binding, rapid equilibrium dialysis; format: in vitro ADME, mouse
S. pneumoniae = assay: Minimal inhibitory concentration, microbroth dilution; format: cell-based; details: Streptococcus pneumoniae; MIC; read-out: Minimal Inhibitory Concentrations (μM) S. pneumoniae
Method in brief: (§1)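 Susceptibility testing used the CLSI dilution standard, with bacteria at ~10^5 cfu/mL exposed to a two-fold compound series beginning at 200 μM final. The endpoint is the lowest concentration showing no growth after overnight incubation (37 °C, aerobic).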

S. aureus USA 300 = assay: as above; format: cell-based; details: Staphylococcus aureus
Method in brief: as §1

S. pyogenes = assay: as above; format: cell-based; details: Streptococcus pyogenes, read-out: Minimal Inhibitory Concentrations (μM) S. pyogenes
Method in brief: as §1

B. subtilis = assay: as above; format: cell-based; details: Bacillus subtilis, read-out: Minimal Inhibitory Concentrations (μM) B. subtilis
Method in brief: as §1

E. faecails = assay: as above; format: cell-based; details: Enterococcus faecalis
Method in brief: as §1

S. aureus ATCC 29213 = assay: as above; format: cell-based; details: Staphylococcus aureus
Method in brief: as §1

MRSA NRS70 = assay: as above; format: cell-based; details: Staphylococcus aureus
Method in brief: as §1

[2] = Plasma protein binding, rapid equilibrium dialysis; format: in vitro ADME, human; details: 10 μM
Method in brief: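 Compound spiked at 10 μM (0.1% DMSO) into human plasma, dialysed against DPBS pH 7.4 across 8 K MWCO RED membrane for 4 h at 37 °C with shaking. Both chambers quantified by LC-MS against warfarin internal standard; % free = buffer/plasma concentration ×100, % bound = 100 − % free.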

[3] = Cytotoxicity assay (CellTiter-Glo cell viability); format: cell-based; details: African green monkey
Procedure: Cytotoxicity was determined by determining the effect of compounds on cell viability. Vero (kidney epithelial cells; ATCC CCL-81) monolayers were trypsinized and 5000 cells/well were seeded (10-15% confluency) into white-wall, flat bottom 96 well microwell plates (Corning) using enriched Dulbecco's Modified Eagle's Medium (Hyclone: DMEM/High Glucose) containing 10% Fetal Bovine Serum (ATCC-30-2020). Plates were incubated overnight at 37° C. in the presence of 5% CO2. Drug-free media was then replaced with media containing serial dilutions of test compound or DMSO carrier. After an additional 72 hours of incubation, viability was indirectly measured using the CellTiter-Glo® Luminescent Cell Viability (Promega) assay. Assay plates were read at peak emission wavelength of 560 nm using a EnVision® Multilabel Plate Reader (Perkin Elmer) or PHERAstar FS Multilabel reader (BMG, Cary, N.C.). The concentration of test compounds that inhibited growth by 50% (IC50 value) was computed using nonlinear regression based fitting of inhibition curves using log [inhibitor] vs. response-variable slope (four parameters)—symmetrical equation, in GraphPad Prism version 6 [GraphPad Software, La Jolla, Calif. USA, www.graphpad.com]. For each experiment, compounds were tested in duplicate. IC50 values presented are the range of two biologically independent experiments.

S. aureus ΔClpP = assay: Minimal inhibitory concentration, microbroth dilution; format: cell-based, Staphylococcus aureus; details: MIC; ClpP inactivated
Method in brief: as §1

Plasma pharmacokinetics = format: in vivo, male BALB/c mice; details: Route i.v.
[4] = USA300, MIC, read-out: Minimal Inhibitory Concentrations (μM) S. aureus USA 300
[5] = MIC, read-out: Minimal Inhibitory Concentrations (μM) E. faecails
[6] = ATCC29213, MIC, read-out: Minimal Inhibitory Concentrations (μM) S. aureus ATCC 29213
[7] = MIC, read-out: Minimal Inhibitory Concentrations (μM) MRSA NRS70

Row | Structure (SMILES) | Mouse ([1]; mouse, 4 h, 10 μM, pH 7.4) [%] | MIC (S. pneumoniae) [µM] | MIC (S. aureus USA 300; [4]) [µM] | MIC (S. pyogenes; MIC) [µM] | MIC (B. subtilis; MIC) [µM] | MIC (E. faecails; [5]) [µM] | MIC (S. aureus ATCC 29213; [6]) [µM] | MIC (MRSA NRS70; [7]) [µM] | Human ([2]; human, 4 h, pH 7.4) [%] | IC50 at 72 h [3] [µM] | Minimal Inhibitory Concentrations (μM) S. aureus ΔClpP (S. aureus ΔClpP) [µM] | other results
1 | C[C@@H]1C[C@H]2C(=O)OC[C@H](NC(=O)[C@H](Cc3cc(F)cc(F)c3)NC(=O)Nc3ccc(Cl)cc3F)C(=O)N3CCC[C@H]3C(=O)N3CCN(C)C[C@H]3C(=O)N[C@@H](C)C(=O)N2C1 [Compound 34] ({NH(4-Cl-2-F-phenyl)-CO}-[Phe(3,5-F2)]SP[Piperazine(2S-CO,4-Me)]A[Pro(4R-Me)]; ester 2-C) | 97.5 ± 7.5 | 0.039 (≈ 0.033 µg/mL) | 0.156 (≈ 0.132 µg/mL) | 0.078 (≈ 0.0661 µg/mL) | < 0.02 | < 0.02 | 0.078 (≈ 0.0661 µg/mL) | 0.078 (≈ 0.0661 µg/mL) | 96.5 ± 6.5 | > 50 | >20 | 
2 | Cc1cccc(C[C@H](NC(=O)Nc2ccc(Cl)cc2F)C(=O)N[C@H]2COC(=O)[C@@H]3C[C@@H](C)CN3C(=O)[C@H](C)NC(=O)[C@@H]3CCCCN3C(=O)[C@@H]3C[C@@H](O)CN3C2=O)c1 [Compound 10] | 99.7 ± 0.0 | 0.078 (≈ 0.0645 µg/mL) | 0.313 (≈ 0.259 µg/mL) | 0.156 (≈ 0.129 µg/mL) | 0.313 (≈ 0.259 µg/mL) | 0.313 (≈ 0.259 µg/mL) | 0.313 (≈ 0.259 µg/mL) | 0.313 (≈ 0.259 µg/mL) | 99.7 ± 0.2 | > 50 | >20 | 
3 | Cc1cccc(C[C@H](NC(=O)Nc2ccc(Cl)cc2F)C(=O)N[C@@H]2C(=O)N3CCC[C@H]3C(=O)N(C)C([C@@H](C)O)C(=O)N[C@@H](C)C(=O)N3C[C@H](C)C[C@H]3C(=O)O[C@H]2C)c1 (stereo partly drawn) [Compound 5] ({NH(4-Cl-2-F-phenyl)-CO}-[Phe(3-Me)][aThr]P[ξNMeThr]A[Pro(4R-Me)]; ester 2-C) | 98.6 ± 0.5 | 0.039 (≈ 0.0323 µg/mL) | 0.078 (≈ 0.0646 µg/mL) | 0.078 (≈ 0.0646 µg/mL) | 0.156 (≈ 0.129 µg/mL) | 0.156 (≈ 0.129 µg/mL) | 0.078 (≈ 0.0646 µg/mL) | 0.078 (≈ 0.0646 µg/mL) | 98.0 ± 1.0 | > 10 | >20 | 
4 | Cc1ccc(NC(=O)N[C@@H](Cc2cccc(C)c2)C(=O)N[C@@H]2C(=O)N3CCC[C@H]3C(=O)N3CCCC[C@H]3C(=O)N[C@@H](C)C(=O)N3C[C@H](C)C[C@H]3C(=O)O[C@H]2C)cc1 [Compound 1, (S)-3-(M-TOLYL)-2-(3-(P-TOLYL)UREIDO)-N-((2R,6S,8AS,14AS,20S,21S,23AS)-2,6,21-TRIMETHYL-5,8,14,19,23-PENTAOXOOCTADECAHYDRO-1H,5H,14H,19H-PYRIDO[2,1-I]DIPYRROLO[2,1-C:2′,1′-L][1]OXA[4,7,10,13]TETRAAZACYCLOHEXADECIN-20-YL)PROPANAMIDE] ({NH(4-Me-phenyl)-CO}-[Phe(3-Me)][aThr]P[Pip]A[Pro(4R-Me)]; ester 2-C) |  |  |  |  |  |  |  |  |  |  | 200 | C^0 (Plasma pharmacokinetics): 26862.75 ng/mL; AUC(0-inf) (Plasma pharmacokinetics; male, BALB/c, mouse, in vivo, iv, 10 mg/kg, read-out: AUCinf): 7620 ng·h/mL; AUC(0-t) (Plasma pharmacokinetics; male, BALB/c, mouse, in vivo, iv, 10 mg/kg, read-out: AUClast): 7590 ng·h/mL; clearance (Plasma pharmacokinetics; male, BALB/c, mouse, in vivo, iv, 10 mg/kg, read-out: CL): 21.9 mL/min/kg; half-life (Plasma pharmacokinetics; male, BALB/c, mouse, in vivo, iv, 10 mg/kg, read-out: T1/2 (converted)): 29.4 min; Vd (Plasma pharmacokinetics; male, BALB/c, mouse, in vivo, iv, 10 mg/kg, read-out: Vss): 0.74 L/kg; Mouse ([1]; plasma binding, % Bound, mouse plasma): 98.9%; MIC (S. aureus USA 300; USA300, read-out: Minimal Inhibitory Concentrations (μM) S. aureus USA 300, MIC): < 0.098 µM; MIC (S. pyogenes): 0.313 µM (≈ 0.246 µg/mL); MIC (B. subtilis): 0.313 µM (≈ 0.246 µg/mL); MIC (E. faecails; read-out: Minimal Inhibitory Concentrations (μM) E. faecails, MIC): 1.25 µM (≈ 0.982 µg/mL); MIC (S. aureus ATCC 29213; ATCC29213, read-out: Minimal Inhibitory Concentrations (μM) S. aureus ATCC 29213, MIC): 0.313 µM (≈ 0.246 µg/mL); MIC (MRSA NRS70; read-out: Minimal Inhibitory Concentrations (μM) MRSA NRS70, MIC): 0.156 µM (≈ 0.123 µg/mL); Human ([2]; plasma binding, % Bound, human plasma): 98.5%; IC50 at 72 h ([3]; Vero cells, 72 hours, read-out: Cytotoxicity IC50): 1.59 ± 0.08 µM
